Where two headings read alike, the source gives them in different places.
How the values were obtained:
[1] = molecular target: T1, β-glucuronidase Type VII-A derived from Escherichia coli (Escherichia coli, UniProt P05804); assay: Inhibition of β-glucuronidase activity (PNPG substrate, absorbance at 400 nm); format: biochemical; settings: for Inhibition rate (%) Concentration 0.001%: 0.001 wt % in reaction solution
T1 construct: purchased Sigma-Aldrich Corporation
Protocol: 100 μL of a 2 mM PNPG aqueous solution, 40 μL of a 0.5 M phosphate buffer (pH 6.8), 38 μL of ion exchanged water and 2 μL of a 10 or 1 wt % dipropylene glycol (DPG) solution of various compounds or plant extracts were mixed in a bottle γ-ray sterilized in advance, and subsequently 20 μL of a β-glucuronidase aqueous solution adjusted to 16 units/mL was added, in order to allow the enzyme to react in a thermostat bath at 37° C. for 2 hours. Further, in the case of some of compounds, in addition to the above steps, the same experiment was performed using a 0.1 wt % DPG solution as well. As a result, the concentrations of the test compounds and plant extracts in the reaction solution were adjusted to 0.1, 0.01 and 0.001 wt %, respectively. Further, a product prepared by adding DPG in place of the above-mentioned compounds and plant extracts was used as a control, and a product prepared by adding ion exchanged water in place of an enzyme solution was used as a blank for each sample and control, and the respective products were allowed to react for 2 hours in the same manner. It should be noted that the plant extract sample was used as a solvent extract.
The above-mentioned reaction solution was diluted with a 0.2 M glycine buffer (pH 10.4) and measured for its absorbance at a wavelength of 400 nm. The relative activity inhibition rate of a β-glucuronidase was determined by using the obtained measurement value in accordance with the following equation. Absorbance change of control=Absorbance of control−Absorbance of blank for each control Absorbance change of sample=Absorbance of sample−Absorbance of blank for each sample Activity inhibition rate (%)=[(Absorbance change of control−Absorbance change of sample)/Absorbance change of control]×100

[2] = Urine catching pad urine addition test, urine odor intensity; set-up: species or system human; settings: six-level score 0 to 5, average of five panelists; inhibitor 1 wt. % of water-absorbent polymer; 30 g human urine, 30° C.
Protocol: Sensory evaluation of odor was performed by six panelists, the evaluation was based on a six-level odor intensity indication method in which the odor intensity was indicated with an evaluation score of 0 to 5. In the evaluation score, “0” indicates no odor, “1” indicates odor which can be slightly perceived (detection threshold), “2” indicates odor which can be perceived to be urine odor but is weak (perception threshold), “3” indicates odor which can be easily perceived to be urine odor, “4” indicates strong urine odor, and “5” indicates extreme urine odor. The odor intensity was determined at an interval of 0.5.
Specifically, the urine catching pad was prepared by replacing only a water-absorbent polymer in the commercially available urine catching pad “Relief urine catching pad safe absorption (Anshin-Kyusyu)” (manufactured by Kao Corporation) with a water-absorbent polymer wherein the β-glucuronidase inhibitor of the present invention was added. The added amount of the inhibitor to the water-absorbent polymer was 1 wt. % with respect to the water-absorbent polymer, and was equivalent to 1.5 g/m^2 with respect to the urine catching pad.
A urine addition test was performed by using test pieces having dimensions of 19 cm by 7 cm being cut out from the urine catching pad, and using a test piece containing no β-glucuronidase inhibitor as a blank. The test was performed as follows: 30 g of human urine (a mixture of urine from five humans) were added to these test pieces cut out from the urine catching pad, and the urine odor intensity after 1 hour, after 24 hours, and after 48 hours under preservation at 30° C. was evaluated by five panelists based on the six-level odor intensity indication method as described in the item (2) of Reference Example 2.

[3] = 1.6 units/mL enzyme, 37° C., 2 hours, pH 6.8
[4] = 0.01 wt % in reaction solution, 1.6 units/mL enzyme, 37° C., 2 hours, pH 6.8, read-out: Inhibition rate (%) Concentration 0.01%
[5] = 0.1 wt % in reaction solution, 1.6 units/mL enzyme, 37° C., 2 hours, pH 6.8, read-out: Inhibition rate (%) Concentration 0.1%
[6] = 0.01 wt % in reaction solution, 1.6 units/mL enzyme, 37° C., 2 hours, pH 6.8
[7] = 0.1 wt % in reaction solution, 1.6 units/mL enzyme, 37° C., 2 hours, pH 6.8

T1 sequence (P05804 whole entry): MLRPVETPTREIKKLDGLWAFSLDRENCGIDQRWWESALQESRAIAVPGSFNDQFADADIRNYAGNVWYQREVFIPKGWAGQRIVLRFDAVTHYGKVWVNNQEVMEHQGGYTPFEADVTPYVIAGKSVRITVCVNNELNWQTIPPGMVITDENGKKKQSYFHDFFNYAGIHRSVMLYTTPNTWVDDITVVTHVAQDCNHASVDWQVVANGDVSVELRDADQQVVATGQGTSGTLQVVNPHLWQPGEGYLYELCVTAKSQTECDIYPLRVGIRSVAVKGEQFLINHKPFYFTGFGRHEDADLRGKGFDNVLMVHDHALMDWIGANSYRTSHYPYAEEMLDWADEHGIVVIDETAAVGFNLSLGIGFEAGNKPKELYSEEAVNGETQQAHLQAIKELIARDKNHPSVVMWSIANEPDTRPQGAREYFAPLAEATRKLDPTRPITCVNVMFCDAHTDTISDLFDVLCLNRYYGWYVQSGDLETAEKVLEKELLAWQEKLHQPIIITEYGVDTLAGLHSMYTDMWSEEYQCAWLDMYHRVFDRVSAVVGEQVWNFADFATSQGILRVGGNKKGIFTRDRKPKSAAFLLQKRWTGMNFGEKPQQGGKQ

Row | Compound | Inhibition rate (%) Concentration 0.001% [1, 3] [%] | inhibition at 0.01 wt % [1, 4] [%] | inhibition at 0.1 wt % [1, 5] [%] | further results
1 | O=C(O)[C@@H](O)[C@H]1OC(=O)[C@H](O)[C@H]1O [D-Glucaro-1,4-lactone, D-glucaro-1,4-lactone, reference compound] | 31.1 | 80.4 | 98 | Urine odor intensity After 1 hour [2]: 1.6; Urine odor intensity After 24 hours [2]: 1.9; Urine odor intensity After 48 hours [2]: 3.3
2 | CC(=O)/C=C/C1C(C)=CCCC1(C)C (stereo not drawn) [α-Ionone, α-ionone] | – | – | – | Inhibition rate (%) Concentration 0.01% [1, 6]: 43.3%; Inhibition rate (%) Concentration 0.1% [1, 7]: 91.8%
3 | O=C1CCCC=CCCCCCCCCCC1 [5-Cyclohexadecen-1-one, 5-cyclohexadecen-1-one] | 65.8 | 93.9 | 98.4 | –
4 | CC(C=O)Cc1ccc(C(C)(C)C)cc1 (stereo not drawn) [Lilial, 2-methyl-3-(4-tert-butylphenyl)-propanal] | – | 60.9 | 72.3 | –
5 | CCCCCCC#CC(=O)OC [Methyl-2-nonynoate, methyl-2-nonynoate] | – | 95.3 | 98.2 | –
6 | CC(=O)C1(C)CC2=C(CCCC2(C)C)CC1C (stereo not drawn) [Iso E Super, 1,2,3,4,5,6,7,8-octahydro-2,3,8,8-tetramethyl-2-acetonaphthone] | – | – | – | Inhibition rate (%) Concentration 0.01% [1, 6]: 63.1%; Inhibition rate (%) Concentration 0.1% [1, 7]: 85.9%
7 | CCCCCCCCCC(C)C=O (stereo not drawn) [2-Methylundecanal, 2-methylundecanal] | – | 57 | 62.6 | –
8 | O=C1CCCCCCCC=CCCCCCCC1 [9-Cycloheptadecen-1-one, 9-cycloheptadecen-1-one] | 95.8 | 96.3 | 100 | –
9 | CC(C=O)Cc1ccc2c(c1)OCO2 (stereo not drawn) [Helional, 2-methyl-3-(3,4-methylenedioxyphenyl)-propanal] | – | 32.4 | 76.4 | –
10 | CCOc1cc(C=O)ccc1O [Ethylvanillin, ethylvanillin] | – | – | – | inhibition at 0.01 wt % ([1]; 2 h, pH 6.8, read-out: Inhibition rate (%) Concentration 0.01%): 38.5%; inhibition at 0.1 wt % ([1]; 2 h, pH 6.8, read-out: Inhibition rate (%) Concentration 0.1%): 78.5%
11 | CCC12CCC3C(C)(C)CCCC3(C)C1CCO2 (stereo not drawn) [Grisalva, 6,6,9α-trimethyl-3α-ethyldodecahydronaphtho[2,1-b]furan] | – | – | – | Inhibition rate (%) Concentration 0.01% [1, 6]: 50.4%; Inhibition rate (%) Concentration 0.1% [1, 7]: 77.3%
12 | O=C1CCCCCCCCOCCCCCCO1 [10-Oxa-16-hexadecanolide, 10-oxa-16-hexadecanolide] | 63.0 | 95.8 | 99.4 | –
13 | COC1(C)CCCCCCCCCCC1 [Madrox, 1-methyl-1-methoxycyclododecane] | – | 60.9 | 92.4 | –

Source: patent publication US9200269B2, “β-glucuronidase inhibitor” (priority 2007, dated 2015)
